ChEMBL document CHEMBL1629565, “Relationships among ciprofloxacin, gatifloxacin, levofloxacin, and norfloxacin MICs for fluoroquinolone-resistant Escherichia coli clinical isolates” (2009)
≈ marks a conversion by molar mass, not a printed value. Where “and” joins values, the source holds several entries; their conditions need not be identical. Equal values may be shown once.

How the values were obtained:
Type in all cases: functional
Escherichia coli [1] = assay: Antimicrobial activity against Escherichia coli ATCC 25922 by agar dilution method
Escherichia coli [2] = assay: Antimicrobial activity against fluoroquinolone-resistant Escherichia coli clinical isolate by Etest
Escherichia coli [3] = assay: Antimicrobial activity against fluoroquinolone-resistant Escherichia coli clinical isolate by agar dilution method
Escherichia coli [4] = assay: Antimicrobial activity against fluoroquinolone-sensitive Escherichia coli clinical isolate by Etest

SMILES | MIC (Escherichia coli [1]) | MIC (Escherichia coli [2]) | MIC (Escherichia coli [3]) | MIC (Escherichia coli [4]) | MIC (Escherichia coli [4]; Escherichia coli, read-out: MIC)
CCn1cc(C(=O)O)c(=O)c2cc(F)c(N3CCNCC3)cc21 [NORFLOXACIN] | 0.03 µg/mL (≈ 0.0939 µM) | 16 µg/mL (≈ 50.1 µM) | 232 µg/mL (≈ 727 µM) | 0.06 µg/mL and 0.02 µg/mL | –
C[C@H]1COc2c(N3CCN(C)CC3)c(F)cc3c(=O)c(C(=O)O)cn1c23.C[C@H]1COc2c(N3CCN(C)CC3)c(F)cc3c(=O)c(C(=O)O)cn1c23.O [LEVOFLOXACIN] | – | 8 µg/mL | 39 µg/mL | 0.023 µg/mL | 0.042 µg/mL
COc1c(N2CCNC(C)C2)c(F)cc2c(=O)c(C(=O)O)cn(C3CC3)c12 (stereo unspecified) [GATIFLOXACIN] | 0.004 µg/mL (≈ 0.0107 µM) | 8 µg/mL (≈ 21.3 µM) | 23 µg/mL (≈ 61.3 µM) | – | –
